In patent US8309734B2 (Hoffmann-La Roche Inc., priority 2008, dated 2012):

target: T1, human GPBAR1 receptor (Homo sapiens, UniProt Q8TDU6); assay: functional cAMP assay in CHO-dhfr(minus) cells expressing human GPBAR1 receptors; format: cell-based; settings: cAMP increase (TR-FRET) in CHO-dhfr(minus) cells expressing human GPBAR1; compounds incubated 30 min at 30° C.
T1 construct: expressed in transfected cells
T1 sequence (Q8TDU6 1-330): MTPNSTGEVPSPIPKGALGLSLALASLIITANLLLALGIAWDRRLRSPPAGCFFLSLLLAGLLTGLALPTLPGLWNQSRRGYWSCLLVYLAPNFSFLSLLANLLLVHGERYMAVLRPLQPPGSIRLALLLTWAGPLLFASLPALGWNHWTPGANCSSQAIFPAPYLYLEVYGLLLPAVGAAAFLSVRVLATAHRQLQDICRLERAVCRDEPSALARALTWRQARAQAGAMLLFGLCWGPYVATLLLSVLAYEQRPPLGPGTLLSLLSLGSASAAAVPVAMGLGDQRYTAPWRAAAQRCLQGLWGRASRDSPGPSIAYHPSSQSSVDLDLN
Description: The final clone was verified by DNA sequence analysis. The plasmid was transfected into CHO cells deficient in dihydrofolate reductase activity (CHO-dhfr-) using Lipofectamine plus (Invitrogen). Clones were isolated in limited dilution conditions and identified by activities in the cAMP assay using lithocholic acid as agonist.
The growth medium was exchanged with Krebs Ringer Bicarbonate buffer with 1 mM IBMX and incubated at 30° C. for 30 mM. Compounds were added to a final assay volume of 100 μl and incubated for 30 min at 30° C. […] The time-resolved energy transfer is measured by a TRF reader (Evotec Technologies GmbH, Hamburg Germany), equipped with a ND:YAG laser as excitation source. The plate is measured twice with the excitation at 355 nm and at the emission with a delay of 100 ns and a gate of 100 ns, total exposure time 10s at 730 (bandwith 30 nm) or 645 nm (bandwith 75 nm), respectively.
EC50 values were determined using Activity Base analysis (ID Business Solution, Limited). […] Specificity for GPBAR1 was tested in non-transfected CHO cells in the same assay as above.

| Compound | EC50 [nM] |
| --- | --- |
| CC(C)N1CCN(C(=O)c2cccnc2Oc2cc(Cl)ccc2Cl)c2ccccc21 [Example 124, [2-(2,5-Dichloro-phenoxy)-pyridin-3-yl]-(4-isopropyl-3,4-dihydro-2H-quinoxalin-1-yl)-methanone] | 607 |
| O=C(c1cccnc1Oc1cccc(Cl)c1Cl)N1CCCc2ccccc21 [Example 12, [2-(2,3-Dichloro-phenoxy)-pyridin-3-yl]-(3,4-dihydro-2H-quinolin-1-yl)-methanone] | 1150 |
| O=C(c1cccnc1Oc1cc(C(F)(F)F)cc(Cl)c1F)N1CCCc2ccccc21 [Example 22, [2-(3-Chloro-2-fluoro-5-trifluoromethyl-phenoxy)-pyridin-3-yl]-(3,4-dihydro-2H-quinolin-1-yl)-methanone] | 651 |
| CN(C(=O)c1cccnc1Oc1cc(Cl)ccc1Cl)c1ccccc1F [Example 63, 2-(2,5-Dichloro-phenoxy)-N-(2-fluoro-phenyl)-N-methyl-nicotinamide] | 170 |
| O=C(c1cccnc1Oc1cc(Cl)ccc1Cl)N1CCN(C2COC2)c2ccccc21 [Example 127, [2-(2,5-Dichloro-phenoxy)-pyridin-3-yl]-(4-oxetan-3-yl-3,4-dihydro-2H-quinoxalin-1-yl)-methanone] | 14 |
| CCOC(=O)CCCN1CCN(C(=O)c2cc(F)cnc2Oc2cc(Cl)ccc2Cl)c2ccccc21 [Example 158, 4-{4-[2-(2,5-Dichloro-phenoxy)-5-fluoro-pyridine-3-carbonyl]-3,4-dihydro-2H-quinoxalin-1-yl}-butyric acid ethyl ester] | 384 |
| CCc1ccccc1N(C)C(=O)c1cccnc1Oc1cc(Cl)ccc1Cl [Example 45, 2-(2,5-Dichloro-phenoxy)-N-(2-ethyl-phenyl)-N-methyl-nicotinamide] | 92 |
| Cc1ccc(Cl)cc1Oc1ncccc1C(=O)N1CCCc2ccccc21 [Example 11, [2-(5-Chloro-2-methyl-phenoxy)-pyridin-3-yl]-(3,4-dihydro-2H-quinolin-1-yl)-methanone] | 153 |
| Cc1ccc(Oc2ncccc2C(=O)N2CCCc3ccccc32)cc1Cl [Example 9, [2-(3-Chloro-4-methyl-phenoxy)-pyridin-3-yl]-(3,4-dihydro-2H-quinolin-1-yl)-methanone] | 1010 |
| CN(C(=O)c1cccnc1Oc1cc(Cl)ccc1Cl)c1cc(Cl)ccc1Cl [Example 135, 2-(2,5-Dichloro-phenoxy)-N-(2,5-dichloro-phenyl)-N-methyl-nicotinamide] | 473 |
| O=C(c1ccncc1Oc1cc(Cl)ccc1Cl)N1CCCc2ccccc21 [Example 89, [3-(2,5-Dichloro-phenoxy)-pyridin-4-yl]-(3,4-dihydro-2H-quinolin-1-yl)-methanone] | 7 |
| CC1CCc2ccccc2N1C(=O)c1cccnc1Oc1cc(Cl)ccc1Cl (centres unmarked) [Example 67, [2-(2,5-Dichloro-phenoxy)-pyridin-3-yl]-(2-methyl-3,4-dihydro-2H-quinolin-1-yl)-methanone] | 1690 |
| Cc1ccc2c(c1)CCCN2C(=O)c1cccnc1Oc1cc(Cl)ccc1Cl [Example 31, [2-(2,5-Dichloro-phenoxy)-pyridin-3-yl]-(6-methyl-3,4-dihydro-2H-quinolin-1-yl)-methanone] | 138 |
| COc1cc(C(=O)O)ccc1CCc1cc(Cl)c(Oc2ncccc2C(=O)N2CCN(C3CC3)c3ccccc32)cc1Cl [Example 171, 4-(2-{2,5-Dichloro-4-[3-(4-cyclopropyl-3,4-dihydro-2H-quinoxaline-1-carbonyl)-pyridin-2-yloxy]-phenyl}-ethyl)-3-methoxy-benzoic acid] | 102 |
| O=C(c1cc(F)cnc1Oc1cc(Cl)ccc1Cl)N1CCCc2ccccc21 [Example 83, [2-(2,5-Dichloro-phenoxy)-5-fluoro-pyridin-3-yl]-(3,4-dihydro-2H-quinolin-1-yl)-methanone] | 13 |
| COC(=O)C/C=C/c1cc(Cl)c(Oc2ncccc2C(=O)N2CCN(C3CC3)c3ccccc32)cc1Cl [Example 174, 4-{2,5-Dichloro-4-[3-(4-cyclopropyl-3,4-dihydro-2H-quinoxaline-1-carbonyl)-pyridin-2-yloxy]-phenyl}-but-3-enoic acid methyl ester] | 29 |
| O=C(O)CCc1cc(Cl)c(Oc2ncccc2C(=O)N2CCN(C3CC3)c3ccccc32)cc1Cl [Example 173, 3-{2,5-Dichloro-4-[3-(4-cyclopropyl-3,4-dihydro-2H-quinoxaline-1-carbonyl)-pyridin-2-yloxy]-phenyl}-propionic acid] | 47 |
| Cc1ccc2c(c1)CCCN2C(=O)c1cccnc1Oc1ccc(F)c(Cl)c1 [Example 77, [2-(3-Chloro-4-fluoro-phenoxy)-pyridin-3-yl]-(6-methyl-3,4-dihydro-2H-quinolin-1-yl)-methanone] | 765 |
| COc1ncccc1N(C)C(=O)c1ccncc1Oc1ccc(F)c(Cl)c1 [Example 109, 3-(3-Chloro-4-fluoro-phenoxy)-N-(2-methoxy-pyridin-3-yl)-N-methyl-isonicotinamide] | 562 |
| O=C(c1cccnc1Oc1cccc(F)c1)N1CCCc2ccccc21 [Example 18, (3,4-Dihydro-2H-quinolin-1-yl)-[2-(3-fluoro-phenoxy)-pyridin-3-yl]-methanone] | 322 |
| CN(C(=O)c1cccnc1Oc1cc(Cl)ccc1Cl)c1ncccc1Cl [Example 46, N-(3-Chloro-pyridin-2-yl)-2-(2,5-dichloro-phenoxy)-N-methyl-nicotinamide] | 905 |

Further compounds by falling EC50, results first:

| EC50 [nM] | Compound |
| --- | --- |
| 1970 | COc1ccc(Cl)c(N(C)C(=O)c2cc(F)cnc2Oc2cc(Cl)ccc2Cl)c1Cl [Example 146, N-(2,6-Dichloro-3-methoxy-phenyl)-2-(2,5-dichloro-phenoxy)-5-fluoro-N-methyl-nicotinamide] |
| 1580 | COc1ccncc1N(C)C(=O)c1cccnc1Oc1cc(Cl)ccc1Cl [Example 75, 2-(2,5-Dichloro-phenoxy)-N-(4-methoxy-pyridin-3-yl)-N-methyl-nicotinamide] |
| 1550 | COc1cccc(OC)c1N(C)C(=O)c1cccnc1Oc1cc(Cl)ccc1Cl [Example 60, 2-(2,5-Dichloro-phenoxy)-N-(2,6-dimethoxy-phenyl)-N-methyl-nicotinamide] |
| 1050 | CN(C(=O)c1ccncc1Oc1ccc(Cl)cc1Cl)c1ccccc1Cl [Example 100, N-(2-Chloro-phenyl)-3-(2,4-dichloro-phenoxy)-N-methyl-isonicotinamide] |
| 689 | O=C(c1cc(F)cnc1Oc1cc(Cl)ccc1Cl)N1CCN(CC2CCC2)c2ccccc21 [Example 152, (4-Cyclobutylmethyl-3,4-dihydro-2H-quinoxalin-1-yl)-[2-(2,5-dichloro-phenoxy)-5-fluoro-pyridin-3-yl]-methanone] |
| 686 | CCN(C(=O)c1cc(F)cnc1Oc1cc(Cl)ccc1Cl)c1ccccc1 [Example 84, 2-(2,5-Dichloro-phenoxy)-N-ethyl-5-fluoro-N-phenyl-nicotinamide] |
| 345 | O=C(c1cccnc1Oc1cccc(I)c1)N1CCCc2ccccc21 [Example 21, (3,4-Dihydro-2H-quinolin-1-yl)-[2-(3-iodo-phenoxy)-pyridin-3-yl]-methanone] |
| 232 | O=C(c1cccnc1Oc1cccc(Br)c1)N1CCCc2ccccc21 [Example 23, [2-(3-Bromo-phenoxy)-pyridin-3-yl]-(3,4-dihydro-2H-quinolin-1-yl)-methanone] |
| 181 | COC(=O)c1cc(Cl)c(Oc2ncccc2C(=O)N2CCN(C3CC3)c3ccccc32)cc1Cl [Example 182, 2,5-Dichloro-4-[3-(4-cyclopropyl-3,4-dihydro-2H-quinoxaline-1-carbonyl)-pyridin-2-yloxy]-benzoic acid methyl ester] |
| 116 | Cc1cccc(C)c1N(C)C(=O)c1cccnc1Oc1cc(Cl)ccc1Cl [Example 52, 2-(2,5-Dichloro-phenoxy)-N-(2,6-dimethyl-phenyl)-N-methyl-nicotinamide] |
| 78 | O=C(c1cc(F)cnc1Oc1cc(Cl)ccc1Cl)N1CCOc2ccccc21 [Example 81, [2-(2,5-Dichloro-phenoxy)-5-fluoro-pyridin-3-yl]-(2,3-dihydro-benzo[1,4]oxazin-4-yl)-methanone] |
| 62 | O=C(c1cccnc1Oc1cc(Cl)ccc1Cl)N1CCNc2ccccc21 [Example 122, [2-(2,5-Dichloro-phenoxy)-pyridin-3-yl]-(3,4-dihydro-2H-quinoxalin-1-yl)-methanone] |
| 54 | O=C(c1cccnc1Oc1cc(Cl)c(Br)cc1Cl)N1CCN(C2CC2)c2ccccc21 [Example 163, [2-(4-Bromo-2,5-dichloro-phenoxy)-pyridin-3-yl]-(4-cyclopropyl-3,4-dihydro-2H-quinoxalin-1-yl)-methanone] |
| 35 | COc1ccc(F)cc1N(C)C(=O)c1cccnc1Oc1cc(Cl)ccc1Cl [Example 54, 2-(2,5-Dichloro-phenoxy)-N-(5-fluoro-2-methoxy-phenyl)-N-methyl-nicotinamide] |
